# Patent US20250064799A1, “ORAL FORMULATIONS OF LEVOSIMENDAN FOR TREATING PULMONARY HYPERTENSION WITH HEART FAILURE WITH PRESERVED EJECTION FRACTION” (Tenax Therapeutics, Inc., priority 2021, published 2025)
# “And” between values parts separate entries of the source, which are not always exact repeats. Equal values may be shown once.
# What was measured:
# HFpEF patients [1] = conditions: inhaled 3 times a day for 4 weeks; cited from earlier work
# [2] = tested on: patients with left heart disease; conditions: in vivo; cited from earlier work
# [3] = tested on: phosphodiesterase-3 (PDE3); conditions: cited from earlier work
# [4] = heart failure subjects; cited from earlier work
# [5] = OR-1896 plasma concentration, I.V. to oral transition pharmacokinetic study; format: in vivo, human; conditions: individual patients
# Excerpt: FIGS. 6A-6W: Pharmacokinetic Data from the Levosimendan I.V. to Oral Transition Study. […] FIGS. 6D-6U show patient OR-1896 plasma concentrations (ng/ml, y-axis) for each patient in the I.V. to oral transition study. The respective patient number is indicated above each graph. FIG. 6V: Individual Patient Change in 6-minute walk distance (6MWD) at Week 6 (y-axis) by OR-1896 plasma concentration (Week 6) (x-axis). FIG. 6W: Individual Patient Change in Heart Rate (Week 0 to Week 6) (y-axis) by OR-1896 plasma concentration (Week 6) (x-axis).
# [6] = tested on: whole cardiomyocytes and isolated contractile apparatus preparations; conditions: cited from earlier work
# PDE4 = conditions: cited from earlier work
# HFpEF patients [7] = conditions: in vivo; cited from earlier work
# [8] = tested on: HFpEF, HFrEF, or PH-HFpEF patients; conditions: empagliflozin alone; cited from earlier work
# PH-HFpEF patients [9] = conditions: in vivo; cited from earlier work
# PH-HFpEF patients [10] = conditions: after 12 weeks, 52 patients; cited from earlier work
# patients with HFpEF = conditions: long term treatment, 216 patients; cited from earlier work
# patients with PH-HFpEF = conditions: in vivo; cited from earlier work
smiles,measurement,setting,value
O=NO [sodium nitrite],peak oxygen consumption during cardiopulmonary exercise (primary endpoint) and secondary endpoints,HFpEF patients [1],unable to demonstrate any improvement
CCCNS(=O)(=O)Nc1ncnc(OCCOc2ncc(Br)cn2)c1-c1ccc(Br)cc1 [macitentan],"hemodynamic parameters (pulmonary vascular resistance, mean pulmonary arterial pressure, pulmonary artery wedge pressure)",[2],no change
"CC(=O)Nc1ccc(C2=NNC(=O)C[C@H]2C)cc1 [OR-1896, (R)—N-(4-(4-methyl-6-oxo-1,4,5,6-tetraihydropyridazin-3-yl)phenyl) acetamide]",potency in inhibition of PDE3 relative to levosimendan,[3],profoundly less potent
same,half-life,[4],70 to 80 h
same,"OR-1896 Plasma concentration, Week 6",[5]; daily 3 mg oral levosimendan,13.0 ng/mL and 8.44 ng/mL and 4.04 ng/mL and 8.73 ng/mL and 29.0 ng/mL and 8.15 ng/mL and 1.97 ng/mL and 13.4 ng/mL and 34.1 ng/mL and 7.72 ng/mL and 22.9 ng/mL and 16.5 ng/mL and 12.7 ng/mL and 21.9 ng/mL and 12.3 ng/mL and 5.15 ng/mL
same,"OR-1896 Plasma concentration, Week 4",[5]; oral levosimendan titration,8.86 ng/mL and 6.14 ng/mL and 6.28 ng/mL and 1.39 ng/mL and 12.6 ng/mL and 11.6 ng/mL and 32.9 ng/mL and 7.96 ng/mL and 13.1 ng/mL and 6.50 ng/mL and 5.90 ng/mL
same,"OR-1896 Plasma concentration, Week 8","[5]; oral levosimendan, patients titrated at Week 6",3.47 ng/ml and 38.7 ng/ml and 69.9 ng/ml and 2.93 ng/ml and 25.5 ng/ml (2×) and 10.9 ng/ml
same,"OR-1896 Plasma concentration, Week 0",[5]; weekly I.V. levosimendan,4.46 ng/mL and 2.22 ng/mL and 0.730 ng/mL and 0.197 ng/mL and 12.2 ng/mL and 3.16 ng/mL and 0.787 ng/mL and 6.89 ng/mL and 36.1 ng/mL and 2.11 ng/mL and 0.00 ng/mL and 6.32 ng/mL and 2.81 ng/mL and 4.86 ng/mL and 3.77 ng/mL and 1.19 ng/mL
same,inotropic effects relative to levosimendan,[6],equipotent
same,potency in inhibition of PDE4 relative to levosimendan,PDE4,profoundly less potent
COC(=O)Nc1c(N)nc(-c2nn(Cc3ccccc3F)c3ncc(F)cc23)nc1N [vericiguat],primary endpoints,HFpEF patients [7],no significant changes
OC[C@H]1O[C@@H](c2ccc(Cl)c(Cc3ccc(O[C@H]4CCOC4)cc3)c2)[C@H](O)[C@@H](O)[C@@H]1O [empagliflozin],change in exercise capacity as measured by 6MWD,[8],did not demonstrate a material change
COC(=O)N(C)c1c(N)nc(-c2nn(Cc3ccccc3F)c3ncccc23)nc1N [riociguat],mean pulmonary arterial pressure (primary outcome),PH-HFpEF patients [9],primary outcome was not achieved
CCCc1nn(C)c2c(=O)[nH]c(-c3cc(S(=O)(=O)N4CCN(C)CC4)ccc3OCC)nc12 [sildenafil],change in mPAP,PH-HFpEF patients [10],no change
same,"six-minute walk time, clinical status, or quality of life",patients with HFpEF,failed to improve
COc1ccccc1Oc1c(NS(=O)(=O)c2ccc(C(C)(C)C)cc2)nc(-c2ncccn2)nc1OCCO [bosentan],clinical outcomes versus placebo,patients with PH-HFpEF,worse clinical outcomes
same,six minute walk test or echocardiographic evaluation of pulmonary hypertension,patients with PH-HFpEF,no improvements
